Experimental data published in BindingDB's records for doi:10.1016/j.bmcl.2018.05.060 (Universidad De Granada, 2018).
pIC50: −log10 of the molar value.

Biological target: Choline kinase alpha (Homo sapiens, UniProt P35790)
Experiment: Inhibition of human choline kinase alpha1 using [methyl-14C]choline as substrate assessed as reduction in rate of incorporation of 14C from [methyl-14C]choline into phosphocholine preincubated for 5 mins followed by substrate addition measured after 10 mins by scintillation counting

Choline kinase alpha, sequence (P35790 whole entry): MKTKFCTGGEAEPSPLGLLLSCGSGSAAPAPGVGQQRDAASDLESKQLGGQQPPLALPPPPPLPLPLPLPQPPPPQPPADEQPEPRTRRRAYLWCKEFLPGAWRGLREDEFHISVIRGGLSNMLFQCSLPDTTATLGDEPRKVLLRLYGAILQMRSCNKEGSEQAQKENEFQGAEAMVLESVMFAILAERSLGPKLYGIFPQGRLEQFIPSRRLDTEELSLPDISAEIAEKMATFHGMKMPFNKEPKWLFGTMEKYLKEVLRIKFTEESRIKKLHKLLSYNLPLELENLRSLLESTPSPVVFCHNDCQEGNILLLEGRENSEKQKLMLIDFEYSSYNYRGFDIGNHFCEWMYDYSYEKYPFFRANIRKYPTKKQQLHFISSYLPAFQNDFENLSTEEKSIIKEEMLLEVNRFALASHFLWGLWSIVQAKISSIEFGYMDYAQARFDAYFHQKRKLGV

SMILES: CN(c1ccccc1)c1cc[n+](Cc2ccc(OCCOc3ccc(C[n+]4ccc(N(C)c5ccccc5)c5ccccc54)cc3)cc2)c2ccccc12
- pIC50: 5.16
